Five compounds from patent US7510851B2, “Compositions and methods for diagnosing and treating diabetes, insulin resistance and dyslipidemia” (Metabolex, Inc., priority 2001, dated 2009) can be followed below.

One experiment concerns the target T1, PPAR alpha (Homo sapiens, UniProt Q07869).
T1 construct: expressed in transfected cells
T1 sequence (Q07869 239-466 limits assumed): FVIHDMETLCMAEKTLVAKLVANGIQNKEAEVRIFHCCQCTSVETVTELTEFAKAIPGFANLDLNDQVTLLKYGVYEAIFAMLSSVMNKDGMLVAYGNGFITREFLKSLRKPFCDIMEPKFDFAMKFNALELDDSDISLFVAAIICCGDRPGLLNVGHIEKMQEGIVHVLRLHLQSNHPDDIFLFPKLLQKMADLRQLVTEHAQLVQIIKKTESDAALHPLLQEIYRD
The experiment can be described thus: cell-based PPAR ligand activity reporter assay (PPAR ligand-binding domain coupled to heterologous DNA binding domain). The conditions noted are these: reporter gene expression. On the procedure:
(§1) Prostaglandin D2 and 9α,11β-PGF2α were assayed in cell-based assays (ex vivo) designed to detect PPAR ligand activity. The assay uses a recombinant protein consisting of a PPAR ligand-binding domain coupled to a heterologous DNA binding domain. See, e.g., Reginato, et. al., J. Biol. Chem. 273:32679 (1998). Binding of a ligand to the PPAR binding domain drives expression of a reporter gene.
For orientation: Reporter assays use an easily measured gene product as a stand-in for the process of interest.

The target in a further experiment is T2, PPAR gamma (Homo sapiens, UniProt P37231).
T2 construct: expressed in transfected cells
T2 sequence (P37231 238-503 limits assumed): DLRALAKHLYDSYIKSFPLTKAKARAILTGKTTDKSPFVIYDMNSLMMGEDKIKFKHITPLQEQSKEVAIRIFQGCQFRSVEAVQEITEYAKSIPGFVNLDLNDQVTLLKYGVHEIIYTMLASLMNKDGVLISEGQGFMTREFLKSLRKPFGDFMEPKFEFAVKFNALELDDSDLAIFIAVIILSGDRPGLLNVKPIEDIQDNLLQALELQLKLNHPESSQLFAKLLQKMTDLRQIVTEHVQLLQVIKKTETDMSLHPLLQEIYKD
The description is as above. The conditions noted are these: reporter gene expression. On the procedure: as §1

Experiment [1] relates to aP2 reporter gene (endogenous PPAR). The experiment can be described thus: cell-based natural PPAR-responsive promoter (aP2) reporter gene assay. On the set-up: species or system mouse. On the procedure:
Prostaglandin D2 and 9α,11β-PGF2α were assayed in cell-based assays (ex vivo) designed to detect activation of a natural PPAR responsive promoter. The assay uses the promoter region of the mouse aP2 gene, which contains binding sites for PPARs (both PPAR alpha and gamma) coupled to a reporter gene. Binding of a ligand to endogenous PPAR results in activation of the aP2 reporter gene.

A further experiment deals with PDHK4. The experiment can be described thus: Taqman PCR expression in treated 3T3-L1 adipocytes. The conditions noted are these: for PDHK4 fold change: Taqman, 3T3-L1 adipocytes treated with rosiglitazone, PGD2 or 9α,11β-PGF2α; for up regulation of PDHK4, fold: Taqman PCR with SYBR green detection, verification of chip data. It is filed as cell-based, mouse. The source says:
(§2) Primers were designed against murine RGS2 and murine PDHK4 and the gene expression changes observed with the standard mouse chips were verified using Taqman PCR with SYBR green detection. Treatment of cells with pioglitazone, rosiglitazone or troglitazone caused a down regulation of RGS2 by 0.47 fold, 0.41 fold and 0.55 fold, respectively.
(§3) Taqman primers were used to analyze the expression of RGS2 and PDHK4 in mouse 3T3-L1 adipocytes treated with rosiglitazone, PGD2 and 9α,11β-PGF2α. […] In contrast, the fold change with 9α,11β-PGF2α was 0.75. […] In contrast, the fold change with 9α,11β-PGF2α was 0.77.

The subject of the next experiment is RGS2. Description: Taqman PCR expression in treated 3T3-L1 adipocytes. It is filed as cell-based, mouse. The conditions noted are these: for RGS2 fold change: Taqman, 3T3-L1 adipocytes treated with rosiglitazone, PGD2 or 9α,11β-PGF2α; for down regulation of RGS2, fold: Taqman PCR with SYBR green detection, verification of chip data.
Text: as §2, §3
In general terms: Real-time PCR tracks product formation cycle by cycle.

A further experiment deals with mouse 3T3-L1 adipocytes. The experiment can be described thus: glucose transport in 3T3-L1 adipocytes. It is filed as cell-based. The conditions noted are these: treatment for 40 hours.
Another experiment relates to 3T3-L1 adipocytes. The experiment can be described thus: insulin-stimulated glucose transport (3H-2-deoxyglucose) in adenovirus-infected 3T3-L1 adipocytes. The format is cell-based, mouse. The conditions noted are these: cells infected with control virus, 4 μM PGD2 for 20 hours. On the procedure:
3T3-L1 adipocytes were infected with either control adenovirus or recombinant adenovirus encoding the four human AKR1C isoforms and incubated 20 hours to allow for protein expression. Cells were then treated 20 hours with 4 μM PGD2 and glucose transport in the absence and presence of insulin was measured.

For the next experiment, the system named is RGS2 mRNA. Description: standard mouse micro-array expression in treated 3T3-L1 adipocytes. It is filed as cell-based. The text has this:
(§4) For RGS2 we observed down-regulation as follows; pioglitazone 0.29 fold p<0.00009, rosiglitazone 0.25 fold p<0.00003, troglitazone, 0.27 fold p<0.00085. […] As such these regulations are reflective of endogenous PPAR activation of endogenous genes.

For experiment [2], the system named is pyruvate dehydrogenase kinase 4 mRNA (PDHK4). The experiment is described as above. The format is cell-based.
Text: as §4

Take `CCCCC[C@H](O)/C=C/[C@@H]1[C@@H](C/C=C\CCCC(=O)O)[C@@H](O)C[C@@H]1O` [9α,11β-PGF2α, 9α,11β-prostaglandin F2α]: the “activation of PPAR alpha” value at PPAR alpha is “without effect”. In addition, on PPAR gamma, the “activation of PPAR gamma” value is given as “without effect”. In [1], the “activation of the aP2 reporter gene” value is “without effect”. Besides, the PDHK4 fold change in the experiment on PDHK4 came to 0.77 fold change. The RGS2 fold change with RGS2 was found to be 0.75 fold change. Also, the “effect on glucose transport” value in the experiment with mouse 3T3-L1 adipocytes is recorded as “no effect on glucose transport”.

As for `CCCCC[C@H](O)/C=C/[C@H]1C(=O)C[C@H](O)[C@@H]1C/C=C\CCCC(=O)O` [PGD2, prostaglandin D2], the “effect on insulin-stimulated glucose transport” value with 3T3-L1 adipocytes is given as “enhances insulin-stimulated glucose transport”. For the same compound, the “activation of PPAR alpha” value at PPAR alpha was “Significant activation”. Moreover, the “activation of PPAR gamma” value on PPAR gamma was “Significant activation”. The “activation of the aP2 reporter gene” value in experiment [1] was “Significant activation”. Moreover, the PDHK4 fold change in the experiment on PDHK4 is given as 2.39 fold change. For the same compound, the RGS2 fold change in the experiment on RGS2 worked out at 0.29 fold change. In addition, the “effect on glucose transport” value in the experiment with mouse 3T3-L1 adipocytes is recorded as “enhances glucose transport to similar levels as those observed with the PPAR ligand rosiglitazone”.

Consider `CCc1ccc(CCOc2ccc(CC3SC(=O)NC3=O)cc2)nc1` (stereo not drawn) [pioglitazone], for which the “RGS2 mRNA down-regulation, fold” value in the experiment on RGS2 mRNA is given as 0.29 fold. Also, the “PDHK4 mRNA up regulation, fold” value in [2] was found to be 3.13 fold. Besides, in the experiment with PDHK4, the “up regulation of PDHK4, fold” value is 4.9 fold. For the same compound, in the experiment with RGS2, the “down regulation of RGS2, fold” value is recorded as 0.47 fold.

As for `CN(CCOc1ccc(CC2SC(=O)NC2=O)cc1)c1ccccn1` (stereo not drawn) [rosiglitazone], the “RGS2 mRNA down-regulation, fold” value in the experiment with RGS2 mRNA was 0.25 fold. Moreover, the “PDHK4 mRNA up regulation, fold” value in [2] amounted to 3.16 fold. Also, in the experiment with PDHK4, the “up regulation of PDHK4, fold” value came out at 5.45 fold and the PDHK4 fold change turned out to be 3.73 fold change. Also, in the experiment on RGS2, the “down regulation of RGS2, fold” value is recorded as 0.41 fold and the RGS2 fold change was determined as 0.20 fold change.

In the case of `Cc1c(C)c2c(c(C)c1O)CCC(C)(COc1ccc(CC3SC(=O)NC3=O)cc1)O2` (stereo not drawn) [troglitazone], the “RGS2 mRNA down-regulation, fold” value in the experiment with RGS2 mRNA came out at 0.27 fold. Also, the “PDHK4 mRNA up regulation, fold” value in experiment [2] is listed as 3.2 fold. Also, the “up regulation of PDHK4, fold” value in the experiment on PDHK4 came to 5.5 fold. Also, the “down regulation of RGS2, fold” value in the experiment with RGS2 came to 0.55 fold.
